Values quoted from earlier work in patent US8535946B2, “Biomarker to measure drug efficacy in enteropathic disease” (The Board of Trustees of the Leland Stanford Junior …, priority 2007, dated 2013).

Conditions: humans

Cc1ncc2n1-c1ccc(Cl)cc1C(c1ccccc1F)=NC2 [midazolam]
dose excreted unchanged in the urine: less than 1%
